Test results reported in patent US10278911B2, “Compositions containing cyclic peptides and methods of use” (Merck Patent GmbH, priority 2008, dated 2019).
One block for each molecule: values may come before it. Non-standard residues stand in square brackets, D forms with d. Residues, ends and D or L forms follow the SMILES beside them.

Columns and labels:
human placental αVβ3 = biological target: T1, human placental αVβ3 (Homo sapiens, UniProt P05106+P06756); experiment: Receptor inhibition assay, binding of biotinylated ligands to human placental αVβ3; conditions: purified human placental αVβ3, biotinylated vitronectin, 3 h at 30° C.; read-out: IC50 VN: αvβ3
T1 construct: Purified human integrin αVβ3 from term placenta; from tissue; host or cells: human term placenta
Protocol: After 3 h at 30° C. bound ligand was measures by anti-biotin—alkaline phosphatase detection.

[1] = tested on: full thickness skin model (human primary epidermal keratinocytes and human fibroblasts); experiment: cDNA-microarray gene expression profile of treated human skin model (PIQOR-skin); format: cell-based; conditions: 0.5 μM, 4 days incubation
Protocol: The following is a study to determine the gene expression profiles of Cyclo-(Arg-Gly-Asp-DPhe-Acha) (=CPPC 1) treated human skin.
For the analysis of deregulated gene expression induced by substance CPPC 1, treated and control samples from a human skin model are analyzed as follows: • A full thickness skin model (human primary epidermal keratinocytes and human fibroblasts), such as the Phenion® FTSM, commercially available from Phenion GmbH & Co. KG, Düsseldorf, Germany, is used. Cells are not pooled or genetically modified. • Gene expression analysis is carried out with PIQOR™-skin cDNA microarrays, which contains 1312 genes that are involved in target pathways related to stress, inflammation, pigmentation and depigmentation, moisturization, anti-ageing and hair follicle development in humans. For instance, cell cycle, apoptosis, DNA repair, oxidative metabolism, angiogenesis, cell adhesion cell-matrix interactions and signaling. Genes are represented with four replicate spots. • Treatment with CPPC 1 is performed in 0.5 μM concentration (4 days incubation, n=3 per condition). […] Profiling of Gene Expression—Input Genes
A ratio (log 2) value of zero indicates no regulation, whereas positive (log 2) values indicate an upregulation and negative (log 2) values a downregulation of the relevant gene.
The deregulated genes for skin samples treated with 0.5 μM concentration is used for further analysis.

av-beta3/5 = experiment: Integrin ligand activity (in vitro studies); format: binding
av-beta6 = av-beta6 (Homo sapiens, UniProt P06756+P18564); experiment: Integrin ligand activity (in vitro studies); format: binding
[2] = biological target: T2, vitronectin receptor aVβ3 (Homo sapiens, UniProt P05106+P06756); experiment: Pentapeptides as inhibitors of αVβ3 (immobilized), solid-phase inhibition assay; conditions: αVβ3 from human placental extracts, binding of vitronectin, read-out: IC50 VN: αvβ3
T2 construct: Integrin αVβ3 is purified from human placental extracts; from tissue; host or cells: human placenta (extracts)
Protocol: Preparation and Characterization of Integrin αVβ3: Integrin αVβ3 is purified from human placental extracts by affinity chromatography on GRGDSPK peptide. Extraction and chromatography follows previously published protocols except that Triton X-100 is replaced by 25 mM octyl-P-D-glucopyranoside. Bound integrin is eluted with 10 mM EDTA into 1.5-ml vials containing 25 pl of 1 M MgCl, and concentrated in Centricon 100 microconcentrators. They are stored at 4° C. in neutral buffer containing 25 mM octyl glucoside, and 0.05% sodium azide. Protein concentrations were determined by a micro BCA assay (Pierce).
Solid-phase inhibition assays are established for the inhibition of binding of the vitronectin receptor aVβ3 to their corresponding protein ligands by the cyclic peptides. Inhibitory activities (IC50) of cyclic RGD containing peptides for the binding of vitronectin (VN). Integrins are used as immobilized ligands.

integrin αVβ3 = integrin αVβ3 (Homo sapiens, UniProt P05106+P06756); experiment: Isolated integrin-ligand binding assay (ligand inhibition, immobilized integrin, biotinylated vitronectin); conditions: immobilized recombinant human integrin, biotinylated human serum vitronectin as ligand
Protocol: i) Isolated Integrin-Ligand Binding Assay The production of recombinant human integrin is known in the literature. […] In brief, 96-well ELISA plates are coated by adsorption from neutral aqueous buffers of 1 microg/ml integrin. After blocking residual sites on the plate with BSA, biotinylated ligands (1 microg/ml) are added in the presence or absence of serial dilutions of inhibitor, and after incubation and washing, bound biotin is detected with peroxidase-coupled anti-biotin antibody and TMB substrate.

T2 sequence (P06756 31-889 limits assumed): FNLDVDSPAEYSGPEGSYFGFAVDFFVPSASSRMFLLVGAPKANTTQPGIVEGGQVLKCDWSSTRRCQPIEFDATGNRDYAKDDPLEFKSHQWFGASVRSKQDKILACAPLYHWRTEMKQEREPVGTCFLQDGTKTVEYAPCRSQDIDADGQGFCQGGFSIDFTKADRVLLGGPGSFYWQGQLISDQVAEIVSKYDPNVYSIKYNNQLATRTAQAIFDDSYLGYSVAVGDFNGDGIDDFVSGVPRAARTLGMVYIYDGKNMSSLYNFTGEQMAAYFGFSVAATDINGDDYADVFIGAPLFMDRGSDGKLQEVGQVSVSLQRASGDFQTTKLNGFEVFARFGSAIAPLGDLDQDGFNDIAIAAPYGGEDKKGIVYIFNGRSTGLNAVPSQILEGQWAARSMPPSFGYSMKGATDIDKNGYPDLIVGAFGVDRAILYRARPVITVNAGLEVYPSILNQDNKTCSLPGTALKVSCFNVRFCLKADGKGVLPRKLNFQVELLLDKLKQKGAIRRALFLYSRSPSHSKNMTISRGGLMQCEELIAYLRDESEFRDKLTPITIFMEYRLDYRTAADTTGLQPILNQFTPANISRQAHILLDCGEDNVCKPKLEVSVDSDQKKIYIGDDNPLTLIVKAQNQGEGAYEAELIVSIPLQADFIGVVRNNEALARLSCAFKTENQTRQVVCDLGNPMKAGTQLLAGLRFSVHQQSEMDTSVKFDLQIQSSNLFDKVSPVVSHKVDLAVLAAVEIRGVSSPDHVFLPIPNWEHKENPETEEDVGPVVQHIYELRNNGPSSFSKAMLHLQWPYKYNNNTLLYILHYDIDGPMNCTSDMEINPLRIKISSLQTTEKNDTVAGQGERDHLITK
T2 sequence (P06756 891-1048 partner limits assumed): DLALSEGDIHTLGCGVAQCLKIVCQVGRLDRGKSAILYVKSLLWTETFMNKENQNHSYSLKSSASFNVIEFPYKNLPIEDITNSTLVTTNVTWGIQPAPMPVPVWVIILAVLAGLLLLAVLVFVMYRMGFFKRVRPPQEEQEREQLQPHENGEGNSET
T2 sequence (P05106 27-788): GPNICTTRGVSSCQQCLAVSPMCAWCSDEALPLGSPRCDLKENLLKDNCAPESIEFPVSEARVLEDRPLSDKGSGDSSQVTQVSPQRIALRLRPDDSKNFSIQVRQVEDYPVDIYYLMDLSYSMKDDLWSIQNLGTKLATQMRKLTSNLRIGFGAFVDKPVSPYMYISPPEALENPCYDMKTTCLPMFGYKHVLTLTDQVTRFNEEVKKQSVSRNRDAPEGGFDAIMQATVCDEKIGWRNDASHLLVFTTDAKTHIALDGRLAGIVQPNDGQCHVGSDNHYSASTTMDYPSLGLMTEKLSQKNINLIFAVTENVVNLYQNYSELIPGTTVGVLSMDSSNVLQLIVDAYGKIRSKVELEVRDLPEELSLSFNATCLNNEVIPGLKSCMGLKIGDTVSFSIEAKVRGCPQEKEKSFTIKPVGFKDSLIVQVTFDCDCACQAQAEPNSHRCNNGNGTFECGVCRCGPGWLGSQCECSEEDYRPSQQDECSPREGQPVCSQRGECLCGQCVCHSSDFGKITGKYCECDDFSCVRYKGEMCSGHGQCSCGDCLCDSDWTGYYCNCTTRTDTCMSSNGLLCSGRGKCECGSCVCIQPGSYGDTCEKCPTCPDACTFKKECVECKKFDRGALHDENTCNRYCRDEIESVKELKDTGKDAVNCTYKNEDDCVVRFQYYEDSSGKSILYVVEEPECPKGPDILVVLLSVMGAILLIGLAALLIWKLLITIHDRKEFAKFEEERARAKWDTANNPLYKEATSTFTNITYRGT
T1 sequence (P06756 31-889 limits assumed): as the sequence (P06756 31-889 limits assumed) above
T1 sequence (P06756 891-1048 partner limits assumed): as the sequence (P06756 891-1048 partner limits assumed) above
T1 sequence (P05106 27-788): as the sequence (P05106 27-788) above
Sequence of av-beta6 (P06756 31-1048): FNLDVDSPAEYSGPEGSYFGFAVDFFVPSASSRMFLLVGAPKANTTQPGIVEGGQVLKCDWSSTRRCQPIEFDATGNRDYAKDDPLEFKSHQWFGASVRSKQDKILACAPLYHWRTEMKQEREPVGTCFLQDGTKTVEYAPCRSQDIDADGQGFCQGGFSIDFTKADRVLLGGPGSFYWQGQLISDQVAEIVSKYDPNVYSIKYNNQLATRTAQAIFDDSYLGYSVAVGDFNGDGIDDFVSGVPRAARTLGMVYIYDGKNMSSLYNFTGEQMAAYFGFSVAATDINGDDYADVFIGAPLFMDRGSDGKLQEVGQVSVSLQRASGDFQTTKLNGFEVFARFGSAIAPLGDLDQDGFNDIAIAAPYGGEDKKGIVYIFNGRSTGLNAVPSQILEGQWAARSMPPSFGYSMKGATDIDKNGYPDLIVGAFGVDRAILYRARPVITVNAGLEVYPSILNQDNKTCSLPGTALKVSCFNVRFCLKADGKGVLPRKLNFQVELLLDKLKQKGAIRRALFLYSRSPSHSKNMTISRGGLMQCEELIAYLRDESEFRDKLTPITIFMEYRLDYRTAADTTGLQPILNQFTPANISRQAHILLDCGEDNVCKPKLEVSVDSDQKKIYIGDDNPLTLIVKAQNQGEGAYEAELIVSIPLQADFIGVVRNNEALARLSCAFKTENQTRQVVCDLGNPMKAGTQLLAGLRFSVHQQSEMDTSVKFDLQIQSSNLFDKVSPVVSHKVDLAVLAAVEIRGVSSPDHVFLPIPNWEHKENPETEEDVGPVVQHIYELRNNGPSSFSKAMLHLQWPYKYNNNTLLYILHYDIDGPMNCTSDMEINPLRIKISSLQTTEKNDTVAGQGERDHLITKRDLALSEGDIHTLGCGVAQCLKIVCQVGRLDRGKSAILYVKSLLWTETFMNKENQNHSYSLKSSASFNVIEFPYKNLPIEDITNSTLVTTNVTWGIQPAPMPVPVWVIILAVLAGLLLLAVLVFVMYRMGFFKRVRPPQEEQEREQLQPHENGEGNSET
Sequence of av-beta6 (P18564 22-788): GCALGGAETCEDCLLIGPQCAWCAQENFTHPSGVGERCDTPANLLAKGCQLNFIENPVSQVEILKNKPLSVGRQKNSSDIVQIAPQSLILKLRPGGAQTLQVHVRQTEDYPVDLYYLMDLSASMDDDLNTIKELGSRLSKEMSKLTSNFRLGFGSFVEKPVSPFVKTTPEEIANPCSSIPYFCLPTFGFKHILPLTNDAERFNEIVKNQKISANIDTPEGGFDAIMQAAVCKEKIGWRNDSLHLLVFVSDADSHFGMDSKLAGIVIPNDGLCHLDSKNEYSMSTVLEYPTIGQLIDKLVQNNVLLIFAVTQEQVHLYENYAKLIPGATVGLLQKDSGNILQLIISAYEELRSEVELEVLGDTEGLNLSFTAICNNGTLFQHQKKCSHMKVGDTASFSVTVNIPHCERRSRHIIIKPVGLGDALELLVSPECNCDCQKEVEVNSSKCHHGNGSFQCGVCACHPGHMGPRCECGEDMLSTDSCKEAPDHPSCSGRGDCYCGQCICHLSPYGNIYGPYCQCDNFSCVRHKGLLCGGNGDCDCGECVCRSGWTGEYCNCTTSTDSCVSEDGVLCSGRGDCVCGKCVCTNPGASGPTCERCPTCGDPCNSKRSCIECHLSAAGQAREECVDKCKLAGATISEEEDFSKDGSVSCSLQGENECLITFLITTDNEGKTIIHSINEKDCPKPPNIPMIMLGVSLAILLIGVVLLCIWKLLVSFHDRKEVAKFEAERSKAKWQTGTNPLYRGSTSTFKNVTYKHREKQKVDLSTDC
Sequence of integrin αVβ3 (P06756 31-1048): as the sequence (P06756 31-1048) above
Sequence of integrin αVβ3 (P05106 27-788): as the sequence (P05106 27-788) above

IC50 (human placental αVβ3): 3 nM
SMILES: CC(C)(C)[C@@H]1NC(=O)[C@@H](Cc2ccc(F)cc2)NC(=O)[C@H](CC(=O)O)NC(=O)CNC(=O)[C@H](CCCNC(=N)N)NC1=O [Cyclo-(Arg-Gly-Asp-DPhe(4-F)-Tle)]

SEPRASE gene expression, Compound vs. Control, ratio Log(2) value [1]: 0.546 | activity as av-beta6 ligand (av-beta6): low active
SMILES: N=C(N)NCCC[C@@H]1NC(=O)C2(CCCCC2)NC(=O)[C@@H](Cc2ccccc2)NC(=O)[C@H](CC(=O)O)NC(=O)CNC1=O [CPPC 1, Cyclo-(Arg-Gly-Asp-DPhe-Acha)]
ADAM9 gene expression, Compound vs. Control, ratio Log(2) value [1]: 0.4854 | ASC gene expression, Compound vs. Control, ratio Log(2) value [1]: −0.304 | BCL2L1 gene expression, Compound vs. Control, ratio Log(2) value [1]: 0.263 | BMP-3 gene expression in treated skin [1]: downregulated | C19orf10 gene expression, Compound vs. Control, ratio Log(2) value [1]: 0.263 | CASP8 gene expression, Compound vs. Control, ratio Log(2) value [1]: −0.304 | CCNB2 gene expression, Compound vs. Control, ratio Log(2) value [1]: 0.4647 | CD81 gene expression, Compound vs. Control, ratio Log(2) value [1]: 0.251 | CDK2 gene expression, Compound vs. Control, ratio Log(2) value [1]: 0.2265 | CDK4 gene expression, Compound vs. Control, ratio Log(2) value [1]: 0.1375 | CLU gene expression, Compound vs. Control, ratio Log(2) value [1]: 0.4436 | DDR2 gene expression, Compound vs. Control, ratio Log(2) value [1]: 0.2869 | E2F3 gene expression, Compound vs. Control, ratio Log(2) value [1]: −0.3959 | EGF gene expression, Compound vs. Control, ratio Log(2) value [1]: −0.2345 | ELA2 gene expression, Compound vs. Control, ratio Log(2) value [1]: −0.2345 | FBLN1_4 gene expression, Compound vs. Control, ratio Log(2) value [1]: 0.516 | FBLN2 gene expression, Compound vs. Control, ratio Log(2) value [1]: 0.3785 | FGF1 gene expression, Compound vs. Control, ratio Log(2) value [1]: 0.5059 | FLOT2 gene expression, Compound vs. Control, ratio Log(2) value [1]: 0.4542 | GDF10 gene expression, Compound vs. Control, ratio Log(2) value [1]: −0.2863 | IGFBP4 gene expression, Compound vs. Control, ratio Log(2) value [1]: 0.4854 | IL2 gene expression, Compound vs. Control, ratio Log(2) value [1]: −0.5778 | IL6 gene expression, Compound vs. Control, ratio Log(2) value [1]: 0.4854 | IL7 gene expression, Compound vs. Control, ratio Log(2) value [1]: −0.3585 | IL8 gene expression, Compound vs. Control, ratio Log(2) value [1]: 0.3219 | IL17A gene expression, Compound vs. Control, ratio Log(2) value [1]: −0.6666 | JUN gene expression, Compound vs. Control, ratio Log(2) value [1]: −0.5778 | KRT2A gene expression, Compound vs. Control, ratio Log(2) value [1]: 0.4005 | KRT9 gene expression, Compound vs. Control, ratio Log(2) value [1]: −0.2688 | KRT19 gene expression, Compound vs. Control, ratio Log(2) value [1]: 0.3334 | LCN2 gene expression, Compound vs. Control, ratio Log(2) value [1]: −0.5564 | MCL1 gene expression, Compound vs. Control, ratio Log(2) value [1]: 0.3674 | PGF gene expression, Compound vs. Control, ratio Log(2) value [1]: 0.2141 | PTGS2 gene expression, Compound vs. Control, ratio Log(2) value [1]: 0.4222 | QSOX1 gene expression, Compound vs. Control, ratio Log(2) value [1]: 0.433 | S100A12 gene expression, Compound vs. Control, ratio Log(2) value [1]: −0.2515 | SDCBP gene expression, Compound vs. Control, ratio Log(2) value [1]: 0.3896 | SOCS1 gene expression, Compound vs. Control, ratio Log(2) value [1]: 0.3334 | SPARC gene expression, Compound vs. Control, ratio Log(2) value [1]: 0.3674 | SPRR1A gene expression, Compound vs. Control, ratio Log(2) value [1]: −0.304 | STAT1 gene expression, Compound vs. Control, ratio Log(2) value [1]: 0.3103 | STAT5B gene expression, Compound vs. Control, ratio Log(2) value [1]: −0.1844 | TNF gene expression, Compound vs. Control, ratio Log(2) value [1]: −0.304 | TNFC gene expression, Compound vs. Control, ratio Log(2) value [1]: −0.3401 | TNFRSF1B gene expression, Compound vs. Control, ratio Log(2) value [1]: −0.3585 | TNFRSF25 gene expression, Compound vs. Control, ratio Log(2) value [1]: −0.2688 | TNFSF10 gene expression, Compound vs. Control, ratio Log(2) value [1]: −0.2688 | TNFSF13B gene expression, Compound vs. Control, ratio Log(2) value [1]: −0.2688 | TUBB gene expression, Compound vs. Control, ratio Log(2) value [1]: 0.6599 | TXLN gene expression, Compound vs. Control, ratio Log(2) value [1]: −0.8365 | bone morphogenic proteins (BMPs) gene expression in treated skin [1]: downregulated | fibulins gene expression in treated skin [1]: upregulated | number of deregulated genes selected (of 1312 genes on the microarray) ([1]; p<0.05, at least […] deregulation): 345 | activity as av-beta3/5 ligand (av-beta3/5): highly active

IC50 [2]: > 240000 nM
SMILES: CC(C)[C@@H]1NC(=O)[C@H](Cc2ccccc2)NC(=O)[C@H](CC(=O)O)NC(=O)[C@@H](C)NC(=O)[C@H](CCCNC(=N)N)NC1=O [Cyclo-(Arg-DAla-Asp-Phe-Val)] (cyclo(R[dA]DFV))

IC50 (integrin αVβ3): 24 nM
SMILES: C[C@H]1C(=O)N[C@@H](CCCNC(=N)N)C(=O)NCC(=O)N[C@@H](CC(=O)O)C(=O)N[C@H](Cc2ccccc2)C(=O)N1C [Cyclo-(Arg-Gly-Asp-DPhe-(NMe)Ala)]
